Consider 1 cell line from the supplement of paper PMC10307832.

Assay in all cases: relative viability (nuclei count vs DMSO), 5 days (fraction); higher = more cells survive
Compound in the assay “Axitinib + Alpelisib”: CNC(=O)c1ccccc1Sc1ccc2c(/C=C/c3ccccn3)n[nH]c2c1 [Axitinib] + Cc1nc(NC(=O)N2CCC[C@H]2C(N)=O)sc1-c1ccnc(C(C)(C)C(F)(F)F)c1 [Alpelisib] (partner 2 µM)
The essentials:
(§1)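 Dosing by pin tool came one day after lung cancer cell lines were seeded in 1536-well plates, using either one drug or a fixed anchor-drug dose plus five library-drug doses (not always all listed) in √10 steps. After 5 days, nuclei were counted on 4× images. Relative viability is treated-well nuclei count divided by vehicle-well nuclei count, and values are medians of duplicate plates.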

Compound in the assay “Axitinib + Vorinostat”: CNC(=O)c1ccccc1Sc1ccc2c(/C=C/c3ccccn3)n[nH]c2c1 [Axitinib] + O=C(CCCCCCC(=O)Nc1ccccc1)NO [Vorinostat] (partner 1 µM)
The procedure, abridged:
as §1

Compound in assay [1]: CC1=CC=C(C=C1)C(=O)CN2C3=C(CCCC3)SC2=N [Pifithrin_alpha] + N=C(N)NC(=N)NCCc1ccccc1 [Phenformin] (partner 250 µM)
The essentials:
as §1

Compound in the assay “Axitinib + Olaparib”: CNC(=O)c1ccccc1Sc1ccc2c(/C=C/c3ccccn3)n[nH]c2c1 [Axitinib] + O=C(c1cc(Cc2n[nH]c(=O)c3ccccc23)ccc1F)N1CCN(C(=O)C2CC2)CC1 [Olaparib] (partner 8 µM)
The procedure, abridged:
as §1

With NCI-H650, the relative viability with Axitinib + Alpelisib (first compound 0.005 µM) is 1.19; with Axitinib + Alpelisib (first compound 0.01581 µM) it was 1.13; in the assay with Axitinib + Alpelisib (first compound 0.05 µM), 0.868; with Axitinib + Alpelisib (first compound 0.1581 µM) it was 1.02; in the assay with Axitinib + Alpelisib (first compound 0.5 µM), 1.24; with Axitinib + Vorinostat (first compound 0.005 µM), 0.371. The relative viability worked out at 0.452 with Axitinib + Vorinostat (first compound 0.01581 µM); 0.448 with Axitinib + Vorinostat (first compound 0.05 µM); 0.459 with Axitinib + Vorinostat (first compound 0.1581 µM); 0.366 with Axitinib + Vorinostat (first compound 0.5 µM); 0.49 in assay [1] (first compound 3.162 µM); 0.454 in assay [1] (first compound 10 µM). Moreover, the relative viability in assay [1] (first compound 31.62 µM) is 0.421; in assay [1] (first compound 100 µM), 0.421; with Axitinib + Olaparib (first compound 0.005 µM), 0.403; with Axitinib + Olaparib (first compound 0.01581 µM), 0.389; with Axitinib + Olaparib (first compound 0.05 µM), 0.394; with Axitinib + Olaparib (first compound 0.1581 µM), 0.406. The relative viability with Axitinib + Olaparib (first compound 0.5 µM) came to 0.444.
